From patent publication US11827628B2, “Compositions and methods for inhibition of the JAK pathway” (Rigel Pharmaceuticals, Inc., priority 2005, dated 2023) come the findings set out here.

pIC50: −log10 of the molar value. Where two headings read alike, the source gives them in different places.

For orientation: pIC50 means −log10 of the IC50, conventionally taken in molar units.

This assay relates to up-regulation of ICAM-1 (CD54) by IFNγ in A549 lung epithelial cells. The experiment in a line: A549 Epithelial Line Stimulated with IFNγ (ICAM-1 surface expression, FACS). Format: cell-based, human. As to conditions: ICAM-1 expression by FACS, read-out: IC50, Example 43. In outline: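 A549 cells pre-incubated 1 h with compound (30 μM to 14 nM, 5% FBS, 0.3% DMSO), then stimulated with IFNγ (75 ng/mL) for 24 h. Surface ICAM-1 stained with APC anti-CD54 and read by flow cytometry; geometric mean of live-gated events plotted against concentration for EC50.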

The mark [1] stands for this setting: Homo sapiens, A549, A549 cells stimulated with IFNγ.
[2] abbreviates: A549 cells stimulated with IFNγ.

Consider `Cc1cc(Nc2nc(Nc3ccc(S(N)(=O)=O)cc3)ncc2F)cc(C)c1N1CCN(C)CC1` [IX-44, N2-(4-Aminosulfonylphenyl)-N4-[3,5-dimethyl-4-(4-methylpiperazin-1-yl]phenyl)-5-fluoro-2,4-pyrimidinediamine], for which the pIC50 under setting [1] was 5.09.
Same read-out and setting: for `COC(=O)c1ccc(Nc2nc(Nc3ccc(F)c(S(N)(=O)=O)c3)ncc2F)s1` [IX-48, N2-(3-Aminosulfonyl-4-fluorophenyl)-5-fluoro-N4-(5-methoxycarbonyl-thiophene-2-yl)-2,4-pyrimidinediamine] the value was 5.02.
In the case of `COc1ccc(Nc2nc(Nc3cccc(S(=O)(=O)NN4CCC(C)CC4)c3)ncc2F)cc1Cl` [VI-9, N4-(3-Chloro-4-methoxyphenyl)-5-fluoro-N2-[3-(4-methylpipendin-1-yl)aminosulfonylphenyl]-2,4-pyrimidinediamine], under setting [2], the pIC50 is 5.00.
Still for that read-out and setting: for “N4-(3,4-Dichlorophenyl)-5-fluoro-N2-[3-(4-methylpipendin-1-yl)aminosulfonylphenyl]-2,4-pyrimidinediamine [VI-10]” the value was 4.60.
